In ChEMBL document CHEMBL4630903, “Data for DCP probe BI-2540” (2021):
Activity calls are given as the source filed them. No cut-off for these calls is given here.

Key:
[1] = HIV1 reverse transcriptase picogreen fluorescence assay (enzymatic); design: species or system Human immunodeficiency virus 1
[2] = target: Sodium-dependent noradrenaline transporter (Homo sapiens) (UniProt P23975); assay: NEUP/H Eurofins SafetyScreen44 (BI); details: Compound concentration 10.0 uM
[3] = target: Cholecystokinin receptor type A (Homo sapiens) (UniProt P32238); assay: CCKA/H Eurofins SafetyScreen44 (BI); details: Compound concentration 10.0 uM
MAO-A = MAO-A (Rattus norvegicus, UniProt P21396); assay: MAO-A_ANTAG Eurofins SafetyScreen44 (BI); design: mode of action antagonist; scale not given: the % may be the effect or the level left; details: compound concentration 10 uM, read-out: % Ctrl
[4] = target: Mu-type opioid receptor (Homo sapiens) (UniProt P35372); assay: MU/H Eurofins SafetyScreen44 (BI); details: Compound concentration 10.0 uM
[5] = target: 5-hydroxytryptamine receptor 3A (Homo sapiens) (UniProt P46098); assay: 5HT3/H Eurofins SafetyScreen44 (BI); details: Compound concentration 10.0 uM
[6] = target: 5-hydroxytryptamine receptor 1A (Homo sapiens) (UniProt P08908); assay: 5HT1A/H Eurofins SafetyScreen44 (BI); details: Compound concentration 10.0 uM
[7] = target: Histamine H1 receptor (Homo sapiens) (UniProt P35367); assay: H1/PYRIL/HS Eurofins SafetyScreen44 (BI); details: Compound concentration 10.0 uM
hERG (KCNH2) = hERG (KCNH2) (Homo sapiens, UniProt Q12809); assay: HERG_DOFETILIDE Eurofins SafetyScreen44 (BI); design: mode of action inhibitor; details: probe [3H] dofetilide, compound concentration 10 uM, read-out: % Ctrl
[8] = target: Muscarinic acetylcholine receptor M3 (Homo sapiens) (UniProt P20309); assay: M3/H Eurofins SafetyScreen44 (BI); details: Compound concentration 10.0 uM
[9] = target: Kappa-type opioid receptor (Homo sapiens) (UniProt P41145); assay: KAPPA(KOP)_HU Eurofins SafetyScreen44 (BI); details: Compound concentration 10.0 uM
[10] = target: 5-hydroxytryptamine receptor 2B (Homo sapiens) (UniProt P41595); assay: 5HT2B/H AG Eurofins SafetyScreen44 (BI); details: filed as agonist, Compound concentration 10.0 uM
[11] = target: Prostaglandin G/H synthase 1 (Homo sapiens) (UniProt P23219); assay: COX-1 Eurofins SafetyScreen44 (BI); details: Compound concentration 10.0 uM
[12] = target: Beta-2 adrenergic receptor (Homo sapiens) (UniProt P07550); assay: BETA2/HUM Eurofins SafetyScreen44 (BI); details: filed as antagonist, Compound concentration 10.0 uM
[13] = target: Cannabinoid receptor 2 (Homo sapiens) (UniProt P34972); assay: CB2/PERIPH/H Eurofins SafetyScreen44 (BI); details: Compound concentration 10.0 uM
[14] = target: cGMP-inhibited 3',5'-cyclic phosphodiesterase 3A (Homo sapiens) (UniProt Q14432); assay: PDE3A Eurofins SafetyScreen44 (BI); details: Compound concentration 10.0 uM
[15] = target: D(2) dopamine receptor (Homo sapiens) (UniProt P14416); assay: D2SH_AGON Eurofins SafetyScreen44 (BI); details: filed as agonist, Compound concentration 10.0 uM
[16] = target: Sodium-dependent serotonin transporter (Homo sapiens) (UniProt P31645); assay: SLC6A4/H Eurofins SafetyScreen44 (BI); details: filed as antagonist, Compound concentration 10.0 uM
[17] = target: Adenosine receptor A2a (Homo sapiens) (UniProt P29274); assay: A2A/H Eurofins SafetyScreen44 (BI); details: filed as antagonist, Compound concentration 10.0 uM
[18] = target: Potassium voltage-gated channel subfamily V member 1 (Rattus norvegicus) (UniProt P97557); assay: K+/VOLT/RA Eurofins SafetyScreen44 (BI); details: Compound concentration 10.0 uM
[19] = target: Tyrosine-protein kinase Lck (Homo sapiens) (UniProt P06239); assay: LCK_CE Eurofins SafetyScreen44 (BI); details: Compound concentration 10.0 uM
[20] = target: Alpha-1A adrenergic receptor (Homo sapiens) (UniProt P35348); assay: ALPHA1AH_ANTAG Eurofins SafetyScreen44 (BI); details: filed as antagonist, Compound concentration 10.0 uM
[21] = target: Gamma-aminobutyric acid receptor subunit alpha-1 (Rattus norvegicus) (UniProt P62813); assay: BZD/CENTR/R Eurofins SafetyScreen44 (BI); details: Compound concentration 10.0 uM
[22] = target: Prostaglandin G/H synthase 2 (Homo sapiens) (UniProt P35354); assay: COX-2 Eurofins SafetyScreen44 (BI); details: Compound concentration 10.0 uM
[23] = target: 5-hydroxytryptamine receptor 2A (Homo sapiens) (UniProt P28223); assay: 5HT2AH_AGON Eurofins SafetyScreen44 (BI); details: filed as agonist, Compound concentration 10.0 uM
[24] = target: D(1A) dopamine receptor (Homo sapiens) (UniProt P21728); assay: D1/H Eurofins SafetyScreen44 (BI); details: filed as antagonist, Compound concentration 10.0 uM
[25] = target: Muscarinic acetylcholine receptor M1 (Homo sapiens) (UniProt P11229); assay: M1/H Eurofins SafetyScreen44 (BI); details: Compound concentration 10.0 uM
[26] = target: Vasopressin V1a receptor (Homo sapiens) (UniProt P37288); assay: V1A/HUM Eurofins SafetyScreen44 (BI); details: Compound concentration 10.0 uM
[27] = target: 3',5'-cyclic-AMP phosphodiesterase 4D (Homo sapiens) (UniProt Q08499); assay: PDE4D2 Eurofins SafetyScreen44 (BI); details: Compound concentration 10.0 uM
[28] = target: Muscarinic acetylcholine receptor M2 (Homo sapiens) (UniProt P08172); assay: M2/H Eurofins SafetyScreen44 (BI); details: filed as antagonist, Compound concentration 10.0 uM
[29] = target: 5-hydroxytryptamine receptor 1B (Homo sapiens) (UniProt P28222); assay: 5HT1B(H) Eurofins SafetyScreen44 (BI); details: filed as antagonist, Compound concentration 10.0 uM
[30] = target: Cannabinoid receptor 1 (Homo sapiens) (UniProt P21554); assay: CB1(HU)_AGON Eurofins SafetyScreen44 (BI); details: filed as agonist; Compound concentration 10.0 uM
[31] = target: Glucocorticoid receptor (Homo sapiens) (UniProt P04150); assay: GCORTICOID/H Eurofins SafetyScreen44 (BI); details: Compound concentration 10.0 uM
[32] = target: Sodium-dependent dopamine transporter (Homo sapiens) (UniProt Q01959); assay: DATRANS/HUM Eurofins SafetyScreen44 (BI); details: Compound concentration 10.0 uM
[33] = HIV viral replication assay (ELISA); format: cell-based; details: Human immunodeficiency virus 1, C8166
[34] = target: Glutamate receptor ionotropic, NMDA 2A (Rattus norvegicus) (UniProt Q00959); assay: NMDA/R Eurofins SafetyScreen44 (BI); details: Compound concentration 10.0 uM
[35] = HIV 1 luciferase assay; format: cell-based, Human immunodeficiency virus 1; details: c8166
[36] = target: Angiotensin-converting enzyme (Homo sapiens) (UniProt P12821); assay: ACE(HU_AMTCH400) Eurofins SafetyScreen44 (BI); details: Compound concentration 10.0 uM
[37] = target: L-type Ca2+ channel (dihydropyridine site), Cav1.2 alpha-1C (Rattus norvegicus, UniProt P22002); assay: CA+/DHPSI/R Eurofins SafetyScreen44 (BI); design: mode of action inhibitor; details: rat brain, probe [3H](+)PN200-110, compound concentration 10 uM, read-out: % Ctrl
[38] = target: Histamine H2 receptor (Homo sapiens) (UniProt P25021); assay: H2/APT/HS Eurofins SafetyScreen44 (BI); details: filed as antagonist, Compound concentration 10.0 uM
[39] = target: Endothelin-1 receptor (Homo sapiens) (UniProt P25101); assay: ETA/H Eurofins SafetyScreen44 (BI); details: Compound concentration 10.0 uM
[40] = target: Alpha-2A adrenergic receptor (Homo sapiens) (UniProt P08913); assay: ALPHA2A/HU Eurofins SafetyScreen44 (BI); details: Compound concentration 10.0 uM
[41] = target: Neuronal acetylcholine receptor; alpha4/beta2 (Homo sapiens) (UniProt P17787+P43681); assay: N_NEURO_A4B2 Eurofins SafetyScreen44 (BI); format: protein-complex assay; details: filed as agonist, Compound concentration 10.0 uM
[42] = target: Beta-1 adrenergic receptor (Homo sapiens) (UniProt P08588); assay: BETA1/HUM Eurofins SafetyScreen44 (BI); details: Compound concentration 10.0 uM
[43] = target: Androgen receptor (Homo sapiens) (UniProt P10275); assay: ANDROGEN/H Eurofins SafetyScreen44 (BI); details: Compound concentration 10.0 uM
[44] = target: Delta-type opioid receptor (Homo sapiens) (UniProt P41143); assay: DELTA2/H Eurofins SafetyScreen44 (BI); details: Compound concentration 10.0 uM

Chain of L-type Ca2+ channel (dihydropyridine site), Cav1.2 alpha-1C (P22002 whole entry): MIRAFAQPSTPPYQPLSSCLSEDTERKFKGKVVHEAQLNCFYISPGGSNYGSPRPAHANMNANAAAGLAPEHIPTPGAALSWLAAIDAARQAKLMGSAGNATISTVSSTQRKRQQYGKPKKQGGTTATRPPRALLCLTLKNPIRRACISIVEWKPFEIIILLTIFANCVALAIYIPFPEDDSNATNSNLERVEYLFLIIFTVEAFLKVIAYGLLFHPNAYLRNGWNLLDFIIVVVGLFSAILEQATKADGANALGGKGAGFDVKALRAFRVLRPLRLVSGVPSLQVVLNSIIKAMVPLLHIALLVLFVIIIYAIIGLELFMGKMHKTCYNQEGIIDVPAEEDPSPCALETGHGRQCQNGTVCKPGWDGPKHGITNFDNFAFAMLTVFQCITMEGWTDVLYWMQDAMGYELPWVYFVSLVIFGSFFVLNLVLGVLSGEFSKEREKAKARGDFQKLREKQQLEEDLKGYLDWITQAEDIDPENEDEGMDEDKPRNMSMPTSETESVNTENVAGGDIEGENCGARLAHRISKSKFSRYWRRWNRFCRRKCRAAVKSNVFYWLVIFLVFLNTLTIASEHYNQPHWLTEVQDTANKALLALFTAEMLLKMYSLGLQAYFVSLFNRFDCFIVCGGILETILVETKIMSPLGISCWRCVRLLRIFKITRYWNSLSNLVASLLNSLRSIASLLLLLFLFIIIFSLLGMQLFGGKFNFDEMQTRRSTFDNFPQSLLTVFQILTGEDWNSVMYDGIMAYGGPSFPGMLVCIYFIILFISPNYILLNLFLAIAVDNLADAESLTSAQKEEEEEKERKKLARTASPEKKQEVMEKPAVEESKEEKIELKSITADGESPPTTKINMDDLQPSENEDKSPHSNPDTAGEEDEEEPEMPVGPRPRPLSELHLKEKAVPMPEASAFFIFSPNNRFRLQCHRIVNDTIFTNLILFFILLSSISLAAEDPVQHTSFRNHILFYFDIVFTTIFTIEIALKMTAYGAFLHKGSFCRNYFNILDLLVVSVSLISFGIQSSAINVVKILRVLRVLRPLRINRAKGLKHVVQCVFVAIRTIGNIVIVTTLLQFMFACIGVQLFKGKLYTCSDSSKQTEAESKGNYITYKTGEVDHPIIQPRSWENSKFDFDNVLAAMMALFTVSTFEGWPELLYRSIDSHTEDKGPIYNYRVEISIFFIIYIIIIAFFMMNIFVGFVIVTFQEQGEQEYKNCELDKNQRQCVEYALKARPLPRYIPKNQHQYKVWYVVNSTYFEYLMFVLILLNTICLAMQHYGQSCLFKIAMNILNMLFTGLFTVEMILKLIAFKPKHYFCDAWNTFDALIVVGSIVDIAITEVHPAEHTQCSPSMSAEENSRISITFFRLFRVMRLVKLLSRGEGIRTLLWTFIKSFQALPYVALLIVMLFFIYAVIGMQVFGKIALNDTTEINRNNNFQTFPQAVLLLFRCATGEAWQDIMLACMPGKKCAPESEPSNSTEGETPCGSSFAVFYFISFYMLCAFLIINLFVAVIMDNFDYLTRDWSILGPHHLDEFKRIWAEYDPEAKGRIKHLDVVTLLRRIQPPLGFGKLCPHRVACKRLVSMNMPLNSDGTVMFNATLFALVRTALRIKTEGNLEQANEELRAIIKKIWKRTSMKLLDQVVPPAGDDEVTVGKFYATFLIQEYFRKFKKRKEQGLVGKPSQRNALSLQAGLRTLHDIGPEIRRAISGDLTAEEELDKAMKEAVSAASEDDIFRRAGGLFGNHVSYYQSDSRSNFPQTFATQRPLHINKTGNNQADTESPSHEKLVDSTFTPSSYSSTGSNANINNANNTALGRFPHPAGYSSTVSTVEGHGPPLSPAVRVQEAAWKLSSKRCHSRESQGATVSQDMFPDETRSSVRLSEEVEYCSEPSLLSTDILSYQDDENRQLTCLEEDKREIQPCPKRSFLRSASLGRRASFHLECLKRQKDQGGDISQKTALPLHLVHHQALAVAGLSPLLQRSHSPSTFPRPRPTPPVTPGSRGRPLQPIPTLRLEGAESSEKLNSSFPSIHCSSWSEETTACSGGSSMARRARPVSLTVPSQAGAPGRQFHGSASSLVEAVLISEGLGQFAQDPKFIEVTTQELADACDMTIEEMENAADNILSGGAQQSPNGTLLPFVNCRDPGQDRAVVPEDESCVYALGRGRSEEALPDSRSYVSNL
Chain of D(1A) dopamine receptor (Homo sapiens) (P21728 whole entry): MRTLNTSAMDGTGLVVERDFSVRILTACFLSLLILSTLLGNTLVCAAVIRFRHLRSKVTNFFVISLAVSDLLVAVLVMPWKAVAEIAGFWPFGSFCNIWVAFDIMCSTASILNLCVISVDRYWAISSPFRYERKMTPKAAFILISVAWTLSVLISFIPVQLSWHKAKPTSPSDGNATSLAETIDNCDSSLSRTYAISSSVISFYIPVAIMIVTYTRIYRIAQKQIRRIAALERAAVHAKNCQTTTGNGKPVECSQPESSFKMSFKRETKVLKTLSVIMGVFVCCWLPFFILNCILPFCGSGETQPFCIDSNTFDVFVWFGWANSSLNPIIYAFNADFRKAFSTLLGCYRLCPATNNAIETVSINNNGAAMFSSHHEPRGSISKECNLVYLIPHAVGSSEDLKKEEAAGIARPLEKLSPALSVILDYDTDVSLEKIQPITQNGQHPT
Chain of cGMP-inhibited 3',5'-cyclic phosphodiesterase 3A (Homo sapiens) (Q14432 whole entry): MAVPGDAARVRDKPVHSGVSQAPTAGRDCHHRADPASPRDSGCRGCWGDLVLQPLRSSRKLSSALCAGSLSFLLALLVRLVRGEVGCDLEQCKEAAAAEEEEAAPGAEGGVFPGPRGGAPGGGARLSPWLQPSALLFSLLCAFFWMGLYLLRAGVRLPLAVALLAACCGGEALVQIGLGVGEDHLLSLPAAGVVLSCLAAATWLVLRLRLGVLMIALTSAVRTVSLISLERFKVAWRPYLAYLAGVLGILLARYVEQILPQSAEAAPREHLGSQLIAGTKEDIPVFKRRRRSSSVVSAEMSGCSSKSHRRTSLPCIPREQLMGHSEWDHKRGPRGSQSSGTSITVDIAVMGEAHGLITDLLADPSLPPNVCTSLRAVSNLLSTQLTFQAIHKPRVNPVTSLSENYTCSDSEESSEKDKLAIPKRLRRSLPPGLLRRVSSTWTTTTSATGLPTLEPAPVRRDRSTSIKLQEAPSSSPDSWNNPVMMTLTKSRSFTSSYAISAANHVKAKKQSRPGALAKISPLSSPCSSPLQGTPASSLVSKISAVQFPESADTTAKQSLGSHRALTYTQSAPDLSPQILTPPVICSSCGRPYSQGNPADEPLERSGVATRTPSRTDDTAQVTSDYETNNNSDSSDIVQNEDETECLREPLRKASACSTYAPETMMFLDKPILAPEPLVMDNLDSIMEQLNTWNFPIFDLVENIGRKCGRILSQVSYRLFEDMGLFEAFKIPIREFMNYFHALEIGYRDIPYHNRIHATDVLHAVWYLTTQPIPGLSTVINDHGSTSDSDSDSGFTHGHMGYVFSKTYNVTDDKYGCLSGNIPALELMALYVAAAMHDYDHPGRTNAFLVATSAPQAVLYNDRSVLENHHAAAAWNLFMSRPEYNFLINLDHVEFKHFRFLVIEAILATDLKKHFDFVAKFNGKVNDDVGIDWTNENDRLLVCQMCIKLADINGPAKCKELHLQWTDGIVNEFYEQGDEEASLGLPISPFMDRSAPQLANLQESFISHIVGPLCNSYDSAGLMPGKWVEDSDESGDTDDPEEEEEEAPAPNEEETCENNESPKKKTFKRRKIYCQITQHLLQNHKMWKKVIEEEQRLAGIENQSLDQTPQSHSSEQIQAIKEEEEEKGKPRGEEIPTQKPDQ
Chain of Adenosine receptor A2a (Homo sapiens) (P29274 whole entry): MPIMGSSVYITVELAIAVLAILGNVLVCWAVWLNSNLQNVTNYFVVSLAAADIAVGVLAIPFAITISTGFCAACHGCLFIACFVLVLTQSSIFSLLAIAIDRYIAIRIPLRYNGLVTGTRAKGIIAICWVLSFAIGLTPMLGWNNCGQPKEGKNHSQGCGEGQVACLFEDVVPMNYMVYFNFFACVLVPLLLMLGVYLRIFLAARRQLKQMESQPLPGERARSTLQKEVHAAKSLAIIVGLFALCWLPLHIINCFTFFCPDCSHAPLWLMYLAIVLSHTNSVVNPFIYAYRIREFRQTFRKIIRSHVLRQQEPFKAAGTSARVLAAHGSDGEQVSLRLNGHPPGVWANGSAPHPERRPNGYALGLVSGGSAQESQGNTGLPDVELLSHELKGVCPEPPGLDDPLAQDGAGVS
Chain of Sodium-dependent serotonin transporter (Homo sapiens) (P31645 whole entry, looked up): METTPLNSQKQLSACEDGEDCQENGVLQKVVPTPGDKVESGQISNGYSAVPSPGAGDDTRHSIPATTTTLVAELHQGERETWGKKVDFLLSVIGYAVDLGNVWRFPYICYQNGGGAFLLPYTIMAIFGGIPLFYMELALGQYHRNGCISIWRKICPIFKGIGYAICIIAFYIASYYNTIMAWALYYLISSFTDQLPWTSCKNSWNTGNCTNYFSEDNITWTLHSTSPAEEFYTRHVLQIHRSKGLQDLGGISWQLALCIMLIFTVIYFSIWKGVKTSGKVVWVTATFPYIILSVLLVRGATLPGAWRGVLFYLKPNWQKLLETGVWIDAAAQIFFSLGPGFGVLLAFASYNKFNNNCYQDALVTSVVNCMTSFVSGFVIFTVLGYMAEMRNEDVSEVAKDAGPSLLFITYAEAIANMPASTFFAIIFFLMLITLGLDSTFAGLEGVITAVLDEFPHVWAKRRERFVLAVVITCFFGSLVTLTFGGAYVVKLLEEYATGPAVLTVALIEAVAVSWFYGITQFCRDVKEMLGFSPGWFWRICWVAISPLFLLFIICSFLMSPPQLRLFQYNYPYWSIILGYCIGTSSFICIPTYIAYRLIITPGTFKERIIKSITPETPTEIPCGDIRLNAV

**Q.** Which IC50 [1] does the source give for `CC(C)(C#Cc1ccc(NC(=O)COc2ccccc2C(=O)c2ccccc2)c(Cl)c1)C(=O)O` [BI 2439] here?
**A.** The IC50 was 5050 nM (not active).

**Q.** Which residual activity [2] does the source give for `Cc1c(NC(=O)COc2ccc(Cl)cc2C(=O)c2cc(F)cc(C(F)(F)F)c2)ccc(C(=O)O)c1F` [BI 2540] here?
**A.** Its residual activity is 98%.

**Q.** What about the residual activity [3] of the same molecule?
**A.** Its residual activity is 108%.

**Q.** What about the activity at 10 µM (MAO-A) of the same molecule?
**A.** The activity at 10 µM was 104% (not active).

**Q.** What about the residual activity [4] of the same molecule?
**A.** The residual activity was 99%.

**Q.** And the residual activity [5]?
**A.** The residual activity was 100%.

**Q.** What about the residual activity [6] of the same molecule?
**A.** The residual activity was 94%.

**Q.** What about the residual activity [7] of the same molecule?
**A.** Its residual activity is 96%.

**Q.** And the activity at 10 µM (hERG (KCNH2))?
**A.** Its activity at 10 µM is 94% (not active).

**Q.** What about the IC50 [1] of the same molecule?
**A.** The IC50 was 12 nM (active).

**Q.** And the residual activity [8]?
**A.** Its residual activity is 101%.

**Q.** And the residual activity [9]?
**A.** Its residual activity is 103%.

**Q.** And the residual activity [10]?
**A.** The residual activity was 103%.

**Q.** And the residual activity [11]?
**A.** The residual activity was 110%.

**Q.** And the residual activity [12]?
**A.** The residual activity was 96%.

**Q.** What about the residual activity [13] of the same molecule?
**A.** The residual activity was 100%.

**Q.** What about the residual activity [14] of the same molecule?
**A.** The residual activity was 103%.

**Q.** What about the residual activity [15] of the same molecule?
**A.** The residual activity was 96%.

**Q.** And the residual activity [16]?
**A.** The residual activity was 110%.

**Q.** What about the residual activity [17] of the same molecule?
**A.** The residual activity was 82%.

**Q.** What about the residual activity [18] of the same molecule?
**A.** Its residual activity is 103%.

**Q.** And the residual activity [19]?
**A.** Its residual activity is 88%.

**Q.** And the residual activity [20]?
**A.** The residual activity was 97%.

**Q.** What about the residual activity [21] of the same molecule?
**A.** Its residual activity is 127%.

**Q.** What about the residual activity [22] of the same molecule?
**A.** Its residual activity is 84%.

**Q.** And the residual activity [23]?
**A.** The residual activity was 110%.

**Q.** And the residual activity [24]?
**A.** The residual activity was 100%.

**Q.** And the residual activity [25]?
**A.** The residual activity was 113%.

**Q.** What about the residual activity [26] of the same molecule?
**A.** Its residual activity is 107%.

**Q.** And the residual activity [27]?
**A.** The residual activity was 93%.

**Q.** And the residual activity [28]?
**A.** Its residual activity is 111%.

**Q.** What about the residual activity [29] of the same molecule?
**A.** The residual activity was 90%.

**Q.** And the residual activity [30]?
**A.** The residual activity was 125%.

**Q.** And the residual activity [31]?
**A.** Its residual activity is 103%.

**Q.** What about the residual activity [32] of the same molecule?
**A.** Its residual activity is 92%.

**Q.** And the IC50 [33]?
**A.** The IC50 was 0.76 nM (active).

**Q.** What about the residual activity [34] of the same molecule?
**A.** Its residual activity is 87%.

**Q.** What about the IC50 [35] of the same molecule?
**A.** Its IC50 is 2.6 nM (active).

**Q.** And the residual activity [36]?
**A.** The residual activity was 110%.

**Q.** What about the activity at 10 µM [37] of the same molecule?
**A.** The activity at 10 µM was 96% (not active).

**Q.** And the residual activity [38]?
**A.** The residual activity was 111%.

**Q.** And the residual activity [39]?
**A.** The residual activity was 113%.

**Q.** And the residual activity [40]?
**A.** Its residual activity is 79%.

**Q.** What about the residual activity [41] of the same molecule?
**A.** Its residual activity is 102%.

**Q.** What about the residual activity [42] of the same molecule?
**A.** Its residual activity is 101%.

**Q.** What about the residual activity [43] of the same molecule?
**A.** Its residual activity is 105%.

**Q.** What about the residual activity [44] of the same molecule?
**A.** Its residual activity is 78%.
